Measured values from paper PMC12566936, “DST-3, a Novel Modified Cryptotanshinone, Protects Against Pulmonary Fibrosis via Inhibiting STAT3/Smad Signaling Pathway and Improves Bioavailability” (Pharmaceutics, 2025).
Read-outs that look alike come from different tables or passages of the source.

Tests used:
[1] = Pharmacokinetic study, single iv or oral administration in SD rats; assay type: in vivo; details: for concentration at 0.25 h / concentration at 0.5 h / concentration at 1 h / concentration at 2 h / concentration at 3 h / concentration at 4 h / concentration at 6 h / concentration at 8 h / concentration at 12 h / concentration at 24 h: n = 4; for MRT last: read-out: MRT0–t
Method: A total of 16 male SD rats, according to weight, were randomly divided into four groups (n = 4), a~d, as described in pharmacodynamics study: • (A) DST-3 intravenous injection of 6 mg/kg; • (B) DST-3 oral gavage of 60 mg/kg; • (C) CTS intravenous injection of 6 mg/kg; • (D) CTS oral gavage of 60 mg/kg.
Blood collection was performed in all rats at 0.25 h, 0.5 h, 1 h, 2 h, 3 h, 4 h, 6 h, 8 h, 12 h, and 24 h after administration.
The blank plasma for method validation was rapidly extracted from the main abdominal vein of SD rats. The sample for the pharmacokinetic study was obtained by taking 250 μL of blood from the orbit of SD rats. The blood was placed in a heparinized collection vessel, centrifuged at 3000 rpm for 10 min, and the upper plasma layer was taken.
A 100 μL sample was precisely measured, and 10 μL of loratadine working solution and 500 μL of ethyl acetate were added for liquid–liquid-extraction. The mixture was shaken for 1 min, centrifuged for 4 min at 12,000× g, and 400 μL of the upper organic phase was vacuum dried for 2 h. Then 100 μL of mobile phase (methanol-1% formic acid water (90:10, v/v)) was added, dissolved, vortexed for 1 min, and centrifuged at low temperature for 3 min at 12,000× g. The supernatant (80 μL) was placed in a sample bottle for HPLC-MS/MS analysis.
According to the non-compartmental model, the pharmacokinetic software DAS 2.0 was used to calculate the main pharmacokinetic parameters: maximum plasma concentration (Cmax), elimination half-life (t1/2), time to reach maximum plasma concentration (Tmax), mean residence time (MRT0–t), area under the plasma concentration curve from 0 to the last measured concentration (AUC0−t), AUC from 0 to infinity (AUC0–∞), apparent clearance rate (CL/F) and apparent distribution volume (V/F).

MRC5 cells = assay: CCK8 cell viability assay; assay type: cell-based; details: 20 μM, 48 h
Method: (§1) Medical Research Council cell strain-5 (MRC5, ATCC, Manassas, VA, USA, Cat# CCL-171) was supplemented with 10% fetal bovine serum (GIBCO, Invitrogen, Carlsbad, CA, USA) in low-sugar DMEM medium (GIBCO, Invitrogen, Carlsbad, CA, USA) in an incubator containing 5% CO2 atmosphere at 37 °C.
The cells were seeded in 96-well plates for 24 h and treated with DST-3 (1.25, 2.5, 5, 10, 20 μM) at different concentrations for 48 h. The CCK8 kit (Beyotime, Shanghai, China) was used to test the cytotoxic effect of DST-3 on MRC5 cells. Medium solution of 10% CCK8 was added to each well and incubated at 37 °C for 2 h. Absorbance was measured at 450 nm (BioTek, Elx800, Winooski, VT, USA).

[2] = test system: TGF-β1-stimulated MRC5 cells; assay: TGF-β1-induced fibrosis in MRC5 (α-SMA, fibronectin, type I collagen; immunofluorescence and Western blot); assay type: cell-based; details: TGF-β1 5 ng/mL, 48 h
Method: as §1
MRC5 cells were fixed in 4% paraformaldehyde for 0.5 h, then permeated with 1% Triton X-100 (Sangon Biotech, Shanghai, China) for 10 min, and blocked with goat serum (BOSTER, Wuhan, China) for 1 h. The cells were then incubated with α-SMA or STAT3 (1:100 diluted) primary antibody overnight at 4 °C and secondary antibody at room temperature for 1 h. The nuclei were stained at room temperature with Hoechst 33,342 (1:100 diluted) for 10 min. Fluorescence images were captured using a laser scanning ultra-high resolution microscope (FV3000, Olympus Corporation, Tokyo, Japan).
MRC5 cells or lung tissues were washed with cold PBS and then lysed on ice using RIPA buffer (Beyotime Biotechnology, Shanghai, China) supplemented with protease and phosphatase inhibitors (Bimake, Boston, USA) for 0.5 h and centrifuged at 4 °C at 12,000× g for 15 min. […] (BCA protein Assay Kit, Pierce, Waltham, MA, USA) was used to determine protein concentration. […] Band strength was quantified by ImageJ software (version 1.53t, Bio-Rad, Rockford, IL, USA).

[3] = test system: BLM-induced pulmonary fibrosis in C57BL/6 mice; assay: BLM-induced pulmonary fibrosis model; assay type: in vivo; details: BLM 2 mg/kg; DST-3 15–60 mg/kg, CTS 30 mg/kg oral
Text: Sixty male Sprague-Dawley (SD) rats were individually weighed one day prior to administration and randomly assigned to six groups (n = 10 per group) using a stratified randomization method to ensure balanced average body weights across groups (weight range: 220–260 g; inter-group mean weight difference < 5 g). The vehicle used for […] administration of both CTS and DST-3 was 0.5% sodium carboxymethyl cellulose (CMC-Na) solution. A–F: • (A) Normal saline + CMC–Na; • (B) BLM + 0.5% CMC–Na; • (C) BLM + DST-3 15 mg/kg; • (D) BLM + DST-3 30 mg/kg; • (E) BLM + DST-3 60 mg/kg; • (F) BLM + CTS 30 mg/kg.
Pulmonary fibrosis was induced in groups B–F by tracheal infusion of bleomycin 2 mg/kg, and in group A by normal saline. To create a suspension for oral administration, all DST-3 or CTS were dissolved in 0.5% CMC-Na. […]
HYP was specifically detected in collagen as a posttranslational product of proline hydroxylation. […] In this study, the content of HYP in lung tissue was determined by alkaline hydrolyzation. […] Each sample was measured at 550 nm to detect the absorbance, and the HYP content was calculated according to the following formula: Hydroxproline content (μg/mg) =Measured OD value -Blank OD value/Standard OD value -Blank OD value× Stand content ×Lysate total volume (mL)/Organization wet weight (mg) […]

[4] = cited from earlier work
[5] = male, rat, plasma, iv 6 mg/kg, n = 4, mean ± SD
[6] = male, rat, plasma, oral 60 mg/kg
[7] = male, rat, plasma, po, ig 60 mg/kg, n = 4, mean ± SD

## C[C@H]1COC2=C1C(=O)C(=O)c1c2ccc2c1CCCC2(C)C [CTS, Cryptotanshinone]
[1]; ig 60 mg/kg, n = 4, mean ± SD
  V/F: 1391 ± 382.0 L
[1]; iv 6 mg/kg, n = 4, mean ± SD
  V/F: 87.70 ± 59.30 L
[1]; male, rat, plasma, iv 6 mg/kg
  concentration at 0.25 h: 341 ng/mL
  concentration at 0.5 h: 167 ng/mL
  concentration at 1 h: 91.7 ng/mL
  concentration at 2 h: 73.9 ng/mL
  concentration at 3 h: 62.8 ng/mL
  concentration at 4 h: 45.7 ng/mL
  concentration at 6 h: 29.9 ng/mL
  concentration at 8 h: 19 ng/mL
  concentration at 12 h: 10.2 ng/mL
  concentration at 24 h: 4.8 ng/mL
[1]; [5]
  AUC(0-inf): 671 ± 168 ng·h/mL
  AUC(0-t): 631 ± 157 ng·h/mL
  Cmax: 341 ± 14.9 ng/mL
  half-life: 408 ± 222 min
  MRT last: 5.1 ± 0.3 h
[1]; [6]
  concentration at 0.25 h: 11.7 ng/mL
  concentration at 0.5 h: 13.6 ng/mL
  concentration at 1 h: 18.9 ng/mL
  concentration at 2 h: 16.3 ng/mL
  concentration at 3 h: 23 ng/mL
  concentration at 4 h: 34.8 ng/mL
  concentration at 6 h: 29.4 ng/mL
  concentration at 8 h: 31 ng/mL
  concentration at 12 h: 17.5 ng/mL
  concentration at 24 h: 8.9 ng/mL
[1]; male, rat, plasma, oral, ig 60 mg/kg vs iv 6 mg/kg, AUCig/AUCiv × 100%, read-out: absolute bioavailability
  bioavailability: 8.56%
[1]; [7]
  AUC(0-inf): 574 ± 51 ng·h/mL
  AUC(0-t): 458 ± 22.8 ng·h/mL
  Cmax: 39.5 ± 6.8 ng/mL
  Tmax: 4.5 ± 1 h
  half-life: 558 ± 180 min
  MRT last: 15.7 ± 2.8 h
MRC5 cells
  cell viability (cytotoxicity): significantly decreased
[2]
  expression of α-SMA and ECM proteins: downregulate the overexpression
[3]
  histopathology (HE and Masson staining): inflammatory infiltration and fibrosis severity: reduced inflammatory infiltration and fibrosis severity
[4]; CTS is a substrate of P-glycoprotein
  oral bioavailability: 2.05%
[4]; typically
  oral bioavailability: below 10%
